Measurements from patent publication US20250313558A1, “IMIDAZOLIDINE DERIVATIVE OR PHARMACEUTICALLY ACCEPTABLE SALT THEREOF, AND USE THEREOF” (CELLUS INC., priority 2023, published 2025).
pIC50: −log10 of the molar value.

Columns and labels:
Assay type in all cases: biochemical
ADAM10 = molecular target: T1, ADAM10 (Homo sapiens, UniProt O14672); assay: FRET assay, inhibition of ADAM10
T1 sequence (O14672 214-748): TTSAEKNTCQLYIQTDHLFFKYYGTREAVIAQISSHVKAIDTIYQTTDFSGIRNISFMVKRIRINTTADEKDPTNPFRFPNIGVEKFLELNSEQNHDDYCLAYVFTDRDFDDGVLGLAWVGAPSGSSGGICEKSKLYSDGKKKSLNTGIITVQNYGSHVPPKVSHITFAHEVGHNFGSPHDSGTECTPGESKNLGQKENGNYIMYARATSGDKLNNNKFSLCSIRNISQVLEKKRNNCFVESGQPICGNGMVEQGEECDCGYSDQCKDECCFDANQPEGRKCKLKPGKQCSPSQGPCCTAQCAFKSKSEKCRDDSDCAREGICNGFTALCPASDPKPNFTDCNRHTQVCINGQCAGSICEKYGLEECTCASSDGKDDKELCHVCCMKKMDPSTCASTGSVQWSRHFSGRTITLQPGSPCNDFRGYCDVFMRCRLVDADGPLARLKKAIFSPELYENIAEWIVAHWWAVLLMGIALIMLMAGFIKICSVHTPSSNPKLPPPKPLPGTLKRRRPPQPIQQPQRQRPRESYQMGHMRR
From the text: (§1) FRET assay is a method to detect and quantify the fluorescent signal generated when ADAM/ADAMTS proteins […] specific peptides.

ADAMTS5 = molecular target: T2, ADAMTS5 (Homo sapiens, UniProt Q9UNA0); assay: FRET assay, inhibition of ADAMTS5
T2 sequence (Q9UNA0 262-930): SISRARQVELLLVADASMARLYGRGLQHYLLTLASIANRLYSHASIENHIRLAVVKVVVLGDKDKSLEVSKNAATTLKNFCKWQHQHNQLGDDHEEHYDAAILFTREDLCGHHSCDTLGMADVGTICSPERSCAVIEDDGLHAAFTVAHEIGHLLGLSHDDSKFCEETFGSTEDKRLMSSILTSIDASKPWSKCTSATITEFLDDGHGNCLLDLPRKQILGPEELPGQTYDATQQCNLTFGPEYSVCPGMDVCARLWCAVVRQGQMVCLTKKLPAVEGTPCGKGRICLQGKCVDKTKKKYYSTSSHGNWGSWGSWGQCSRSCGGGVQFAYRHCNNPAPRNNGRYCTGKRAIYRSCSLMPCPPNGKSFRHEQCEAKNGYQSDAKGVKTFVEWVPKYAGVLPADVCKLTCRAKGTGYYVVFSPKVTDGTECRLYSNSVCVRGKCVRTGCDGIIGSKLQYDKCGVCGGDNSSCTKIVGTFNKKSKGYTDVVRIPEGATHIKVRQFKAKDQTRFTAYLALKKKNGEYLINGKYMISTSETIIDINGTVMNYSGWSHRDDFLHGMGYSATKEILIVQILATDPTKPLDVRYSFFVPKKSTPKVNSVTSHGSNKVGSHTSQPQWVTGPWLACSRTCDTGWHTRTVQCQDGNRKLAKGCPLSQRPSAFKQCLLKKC
Experimental: The control compound GLPG-1972 and four effective compounds (CLS-S210 (Formula 2), CLS-S282 (Formula 3), CLS-S213 (Formula 4), and CLS-S214 (Formula 5)) were treated with ADAMTS5, ADAMTS4, ADAM10, and ADAM17 proteins to perform Fluorescence Resonance Energy Transfer (FRET) evaluation. FRET assay is a method to detect and quantify the fluorescent signal generated when ADAM/ADAMTS proteins […] specific peptides.

ADAM17 = ADAM17 (Homo sapiens, UniProt P78536); assay: FRET assay, inhibition of ADAM17
From the text: as §1

ADAM17, sequence (P78536 215-824, species assumed): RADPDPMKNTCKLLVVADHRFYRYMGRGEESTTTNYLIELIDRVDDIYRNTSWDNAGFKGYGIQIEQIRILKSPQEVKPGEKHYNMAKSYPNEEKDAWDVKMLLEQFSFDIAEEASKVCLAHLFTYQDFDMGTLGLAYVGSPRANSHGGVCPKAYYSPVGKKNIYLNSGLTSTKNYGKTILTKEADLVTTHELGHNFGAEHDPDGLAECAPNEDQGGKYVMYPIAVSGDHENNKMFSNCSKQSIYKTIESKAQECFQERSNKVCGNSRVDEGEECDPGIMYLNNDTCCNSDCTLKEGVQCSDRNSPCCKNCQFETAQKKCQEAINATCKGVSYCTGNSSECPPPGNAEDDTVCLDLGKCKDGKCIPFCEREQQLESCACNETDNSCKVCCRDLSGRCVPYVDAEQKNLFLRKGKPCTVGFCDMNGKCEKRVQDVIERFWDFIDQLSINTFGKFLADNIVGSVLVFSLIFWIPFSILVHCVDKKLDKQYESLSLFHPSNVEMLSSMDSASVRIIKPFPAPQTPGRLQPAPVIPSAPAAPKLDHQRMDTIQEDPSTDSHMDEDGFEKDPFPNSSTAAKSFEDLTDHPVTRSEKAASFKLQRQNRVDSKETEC

For CNC(=O)[C@@H](NC(=O)[C@H](CCCc1ccccc1)[C@H](C)N(O)C=O)C(C)(C)C [GI254023X], the “inhibition ability against ADAM10 (in words)” value (ADAM10) was “inhibit ADAM10 and ADAM17 at low concentrations”.

Work on C[C@H]1CN(C(=O)CC[C@@]2(C3CC3)NC(=O)NC2=O)CCN1c1cc(F)cc(F)c1 [GLPG-1972] yielded a pIC50 (ADAMTS5) of 7.19.

In the case of CC(C)C[C@H](CC(=O)NO)C(=O)N[C@@H](Cc1ccc2ccccc2c1)C(=O)N[C@@H](C)C(N)=O [TAPI-0], the “inhibition ability against ADAM17 (in words)” value (ADAM17) was “inhibit ADAM10 and ADAM17 at low concentrations”.
